Three molecules from patent publication US8404829B2, “Predictive and therapeutic markers in ovarian cancer” (The Regents of the University of California, priority 2005, dated 2013) can be followed below.

“Also recorded” adds a separate entry of the source.

The subject of one data set is HEYA8 or SKOV3ip1 tumors. Kind of data set: Therapeutic study in ovarian tumor xenografts (tumor size). The class given is in vivo, mice. The settings on record: siRNA 150 μg/kg twice weekly, paclitaxel 100 μg weekly, four weeks.
For data set [1], the system named is CAOV4 and HEY cell lines in which PVT1 and MYC are highly amplified. Kind of data set: Cell cycle / proliferation after siRNA treatment (BrdUrd/DNA distributions), PVT1/MYC amplified lines. The settings on record: for cell cycle progression (BrdUrd/DNA distributions): CAOV4 and HEY, 48 hours after siRNA treatment, FIG. 7A; for cell proliferation / G1-phase block: ovarian cancer cell lines in which PVT1 is amplified and over expressed. The format is cell-based, human. The method, then:
(§1) In this system, stock cell lines are transferred from flasks and 5×10^4 cells will be seeded into 24-well cell culture plates and transferred to a multi-plate incubator. Individual wells are treated with 40-120 nM siRNA and 2.5-7.5 μg/ml Lipofectamine 2000 (Invitrogen) in […] Opti-MEM reduced serum medium (Invtrogen) for 4 hours (with or without drug) in order to induce the necessary experimental perturbations. After 4 hours, the Opti-MEM are replaced with complete culture medium and the cells cultured for an additional 44 hours. Cell lysates then are extracted and re-formatted into standard 96-well microtiter plates using a Tecan multi-channel liquid handling system. These plates are then fed separately into RNA transcript, protein expression or cell analysis pipelines. For cellular profiling, treated cell culture plates are transported to a Cellomics High Content Imaging system (see below). Transcript profiling is accomplished using Affymetrix U133A/B arrays processed using the Affymetrix High Throughput Analysis system (installed at LBNL in December 2004 under an Affymetrix early access agreement). Protein profiling is accomplished using reverse phase protein at MD Anderson using lysate array technology in cases where suitable antibodies exist. Important pathway proteins are assessed using western blotting in cases where antibodies are not sufficiently specific for use on protein lysate arrays.
(§2) A Becton Dickinson cytometer can be used to measure DNA/BrdUrd distributions and/or DNA distributions during treatment. […] For BrdUrd/DNA analysis, cells are pulse labeled for 30 min. with 1 μM BrdUrd, fixed in 70% ethanol, treated with RNase, denatured and stained with propidium iodide (PI) and a fluorescently labeled antibody against BrdUrd as described in Dolbeare, F., Gratzner, H., Pallavicini, M. G. & Gray, J. W. Flow cytometric measurement of total DNA content and incorporated bromodeoxyuridine. Proc Natl Acad Sci USA 80, 5573-7 (1983), and placed in 96 well trays for analysis.
In FIGS. 7B and 7C, the BrdU data is measuring proportions of cell cycle phases of ovarian cancer cell lines that overexpress PVT1. Referring to the graphs in FIGS. 7B and 7C, cells were left untreated (control, blue bar), treated with lipofectamine 2000 (lipo, purple bar) and green fluorescent protein (GFP; green bar) as controls or treated with PVT1 siRNA (PVT1 si, yellow bar, SEQ ID NO: 3 and 4). The error bars are standard deviation values from more than one experiment. If there are no error bars on a column, it means the experiment was not repeated.

The test system of another data set is HEY and CAOV4 cells. Kind of data set: Apoptosis after siRNA treatment (phase contrast, PI DNA content distribution), PVT1 amplified lines. To be noted: for apoptosis induced DNA fragments (DNA distribution below the G1/diploid peak): CAOV4 cells, FIG. 9A; for induction of apoptosis / cell death: ovarian cancer cell lines in which PVT1 is amplified and over expressed. The format is cell-based, human. The method, then:
as §1, §2
Referring again to FIG. 8, an additional measure of apoptosis can include staining with an Alexa Fluor® 488 conjugate of annexin V (Molecular Probes) and staining with propidium iodide (PI). PI is impermeable to apoptotic cells and live cells, but can enter and bind nucleic acids in necrotic cells. An apoptotic index can be assessed by measuring the fraction of “sub diploid” cells after staining for DNA content using PI as illustrated in FIG. 8A. Cells are fixed in 70% ethanol, treated with RNAse and placed in 96-well trays for DNA content analysis.

The test system of data set [2] is OV90, in which MYC and PVT1 are not amplified; cell lines not expressing PVT1. The data set is described as follows: Cell cycle / growth after siRNA treatment (BrdUrd/DNA distributions), unamplified lines. The format is cell-based, human. To be noted: for cell cycle progression (BrdUrd/DNA distributions): OV90 (unamplified), 48 hours after siRNA treatment, FIG. 7A.

Data set [3] deals with cell lines that do not amplify or over express PVT1. The data set is described as follows: Apoptosis / cell death after PVT1 siRNA, lines without PVT1 amplification. The class given is cell-based, human. To be noted: cell lines in which PVT1 is not amplified or over expressed. As for the experimental part:
as §1, with “Transcript profiling is accomplished using Affymetrix U133A/B arrays processed using the Affymetrix High Throughput Analysis system (installed at LBNL in December 2004 under an Affymetrix early access agreement). Protein profiling is accomplished using reverse phase protein at MD Anderson using lysate array technology in cases where suitable antibodies exist.” left out
Referring again to FIG. 8, an additional measure of apoptosis can include staining with an Alexa Fluor® 488 conjugate of annexin V (Molecular Probes) and staining with propidium iodide (PI). […] An apoptotic index can be assessed by measuring the fraction of “sub diploid” cells after staining for DNA content using PI as illustrated in FIG. 8A. […]

Data set [4] deals with ovarian cancer cell lines that amplify PVT1. The data set is described as follows: High content imaging for apoptosis (Cellomics Multiparameter Apoptosis 1 HitKit), lines that amplify PVT1. The format is cell-based, human. An excerpt:
(§3) A high content fluorescence image analysis system at LBNL (Cellomics, KineticScan) was used to characterize cellular responses to siRNA inhibitors including proliferation rate, apoptotic rate and motility. The KineticScan is an automated imaging instrument that scans through the bottom of clear-bottom 24-well plates, focuses on a field of cells, and acquires images at each selected color channel. The Cellomics software identifies and measures individual features and structures within each cell in a field of cells, so that up to hundreds of cell samples can be analyzed in parallel. The software then tabulates and presents the results in user-defined formats.
(§4) Referring to FIG. 10, PVT siRNA-treated ovarian cell lines were analyzed by high content imaging for apoptosis. Apoptotic cells were detected based on nuclear morphology, mitochondrial mass and/or membrane potential, and f-actin content following staining with the Cellomics Multiparameter Apoptosis 1 HitKit™. Nuclear morphology (i.e., condensation or fragmentation) are measured after staining with Hoechst 33342. Mitochondrial membrane potential and mitochondrial mass are measured after staining with MitoTracker® Red. F-actin is measured after staining with an Alexa Fluor® 488 conjugate of phalloidin (Ax488-ph). Changes in the actin cytoskeleton have been used as a potential parameter related to apoptotic changes. […]

The subject of data set [5] is ovarian cancer cell lines that do not amplify PVT1. The data set is described as follows: High content imaging for apoptosis (Cellomics Multiparameter Apoptosis 1 HitKit), lines that do not amplify PVT1. The class given is cell-based, human.
From the text: as §3, §4

Experimental for HEYA8 or SKOV3ip1 tumors: For therapeutic studies, mice were injected with HEYA8 or SKOV3ip1 cells. One week later, mice were treated twice weekly with DOPC-EPHA2 siRNA (150 μg/kg) alone or in combination with weekly paclitaxel (100 μg), for four consecutive weeks.

Consider `CC(=O)O[C@H]1C(=O)[C@@]2(C)[C@H]([C@H](OC(=O)c3ccccc3)[C@]3(O)C[C@H](OC(=O)[C@H](O)[C@@H](NC(=O)c4ccccc4)c4ccccc4)C(C)=C1C3(C)C)[C@]1(OC(C)=O)CO[C@@H]1C[C@@H]2O` [paclitaxel], for which the “effect on tumor size” value in the data set on HEYA8 or SKOV3ip1 tumors is on record as “effective in reducing tumor size”.
On to “MYC siRNA: siRNA against c-myc; sense GAGGCGAACACACAACGUC (SEQ ID NO: 18), antisense GACGUUGUGUGUUCGCCUC (SEQ ID NO: 19) (listed as RNA, chemistry not given here)”, for which, in data set [1], the “cell cycle progression (BrdUrd/DNA distributions)” value is recorded as “strongly inhibited” and the “cell proliferation / G1-phase block” value is on record as “blocks cells in the G1-phase of the cell cycle”. In addition, in the data set with HEY and CAOV4 cells, the “apoptosis induced DNA fragments (DNA distribution below the G1/diploid peak)” value is “not after MYC inhibition” and the “induction of apoptosis / cell death” value is reported as “does not induce apoptosis”. Moreover, the “cell cycle progression (BrdUrd/DNA distributions)” value in data set [2] is given as “not in the unamplified line”.
As to “PVT1 siRNA: siRNA against PVT1; sense CAGCCAUCAUGAUGGUACU (SEQ ID NO: 3), antisense AGUACCAUCAUGAUGGCUG (SEQ ID NO: 4) (listed as RNA, chemistry not given here)”, the “cell cycle progression (BrdUrd/DNA distributions)” value is “strongly inhibited” in data set [1] and “not in the unamplified line” in data set [2]. Moreover, the “S phase proportion (BrdU)” value in data set [1] (cell lines overexpressing PVT1, vs untreated, lipofectamine 2000 and GFP controls, FIG. 7B) is listed as “much shorter than in the 3 control columns”. Moreover, the “cell proliferation / G1-phase block” value in data set [1] was “inhibit cell proliferation by blocking cell in the G1-phase of the cell cycle; also recorded: blocks cells in the G1 phase of the cell cycle”; in data set [1] (listed as siRNAs against PVT1), “particularly effective in inhibiting proliferation”. The “induction of apoptosis / cell death” value in data set [3] is on record as “do not inhibit growth or induce cell death”; in data set [3] (listed as siRNA against PVT1), “no apoptotic response”; with HEY and CAOV4 cells, “inducing cell death; also recorded: induces apoptosis”; with HEY and CAOV4 cells (listed as siRNA against PVT1) it was “induced apoptosis”; in the data set with HEY and CAOV4 cells (listed as siRNAs against PVT1) it was “inducing apoptosis”. The “apoptosis induced DNA fragments (DNA distribution below the G1/diploid peak)” value in the data set with HEY and CAOV4 cells was “Apoptosis induced DNA fragments are present after PVT1 inhibition”. In addition, in the data set on HEY and CAOV4 cells (HEY cells, treated 48 hours, FIG. 8), the “apoptotic blebbing (phase contrast photomicrographs)” value is “apoptotic blebbing after siRNA inhibition of PVT1 is apparent”. Further, the “apoptotic levels (nuclear morphology, mitochondrial mass/potential, f-actin)” value is listed as “increased apoptotic levels, higher than levels of cells treated with paclitaxel” in data set [4] (cell lines that amplify PVT1, FIG. 10C) and “normal apoptotic levels” in data set [5] (cell lines that do not amplify PVT1). Moreover, in data set [4] (cell lines which overamplify PVT1, after PVT1 siRNA), the F-actin content result was “Increased F-actin content”. Further, the growth inhibition result in data set [2] (cell lines that do not amplify or over express PVT1) is “do not inhibit growth”. Besides, the “effect on cell cycle (S phase, BrdU)” value in data set [2] (ovarian cancer cell lines not expressing PVT1, FIG. 7C) is “does not affect the cell cycle”. Besides, the “F-actin content and thereby apoptosis” value in data set [5] (cell lines having no increased PVT1 amplification, FIG. 10A) was “remained low”.
